Entries after “also recorded” stand apart in the source; their conditions may differ. Like-named read-outs stand apart in the source and are kept apart here.
Experiments:
PK study [1] = assay type: in vivo; conditions: dog i.v. 1.7 mg kg^−1; for half-life: dog
Procedure: (§1) On the treatment day, all animals were weighed and the dosing volume was calculated for each individual animal according to its actual body weight. All animal were dosed once. Blood samples were taken at different time points and plasma was collected after centrifugation (10,000g, 10 min, 4 °C). Plasma samples were analysed by LC–MS/MS. […] All relevant observations were recorded. The PK studies in cynomolgus monkeys and beagle dogs were performed by the Laboratory of Pharmacology and Toxicology (LPT), Hamburg, and PK and toxicity studies in mice and rats were performed by the 4SC Discovery GmbH, Munich. PK parameters were obtained by a non-compartment analysis, using Kinetica 4.1 (Thermo Scientific).

PK study [2] = assay type: in vivo, cynomolgus; conditions: for half-life: 2 mg/kg
Procedure: as §1

[3] = Tolerability of i.v. bolus dose; assay type: in vivo, mouse; conditions: mice
Procedure: (§2) The maximal-tolerated i.v. bolus dose of SC83288 was at 30 mg kg^−1 body weight (extrapolated initial drug plasma concentration C0 of 65,600 ng ml^−1) and 15 mg kg^−1 body weight (C0 of 27,300 ng ml^−1) in rats and mice, respectively. Observed adverse effects included ataxia, respiratory symptoms and sleepiness. However, all treated animals fully recovered within 30 min after drug application. […] Increasing the dose to 45 mg kg^−1 body weight caused apnoea in rats. The no-observed-adverse-effect level and the no-observed-effect level in rats corresponded to a tested i.v. bolus dose of 22.5 mg kg^−1 body weight (C0 of 49,200 ng ml^−1) and 15 mg kg^−1 body weight (C0 of 32,800 ng ml^−1), respectively.
as §1, with “PK parameters were obtained by a non-compartment analysis, using Kinetica 4.1 (Thermo Scientific).” left out

in vivo = assay type: in vivo, rat; conditions: for C0: rat, in vivo, iv
Procedure: as §2, §1

[4] = cynomolgus monkey, plasma, iv, cynomolgus i.v. 2 mg kg^−1

COC(=O)N1CCN(C(=N)c2cccc(NC(=O)Nc3ccc(S(=O)(=O)NCc4ccc(S(N)(=O)=O)cc4)cc3)c2)CC1 [SC83288, methyl 4-(imino(3-(3-(4-(N-(4-sulfamoylbenzyl)sulfamoyl)phenyl)ureido)phenyl)methyl) piperazine-1-carboxylate]
half-life (PK study [1]; beagle, plasma, iv, read-out: t1/2 effective): 35 min
half-life (PK study [1]; beagle, plasma, iv, read-out: t1/2 initial): 12 min
half-life (PK study [1]; beagle, plasma, iv, read-out: t1/2 terminal): 90 min
AUC(0-inf) (PK study [1]; beagle, plasma, iv): 2260 ng·h/mL
C0 (PK study [1]; beagle, plasma, iv): 5580 ng/mL
Cmax (PK study [1]; beagle, plasma, iv): 4560 ng/mL
Tmax (PK study [1]; beagle, plasma, iv): 5 min
clearance (PK study [1]; beagle, plasma, iv): 14.7 mL/min/kg
MRT last (PK study [1]; beagle, plasma, iv, read-out: MRT0-t): 50.4 min
VC (PK study [1]): 359 mL/kg
half-life (PK study [2]; cynomolgus monkey, plasma, iv, cynomolgus i.v. 2 mg kg^−1, read-out: t1/2 effective): 62 min
half-life (PK study [2]; cynomolgus monkey, plasma, iv, cynomolgus i.v. 2 mg kg^−1, read-out: t1/2 initial): 16 min
half-life (PK study [2]; cynomolgus monkey, plasma, iv, cynomolgus i.v. 2 mg kg^−1, read-out: t1/2 terminal): 320 min
AUC(0-inf) (PK study [2]; [4]): 4250 ng·h/mL
C0 (PK study [2]; [4]): 7340 ng/mL
Cmax (PK study [2]; [4]): 6570 ng/mL
Tmax (PK study [2]; [4]): 5 min
clearance (PK study [2]; [4]): 7.83 mL/min/kg
MRT last (PK study [2]; cynomolgus monkey, plasma, iv, cynomolgus i.v. 2 mg kg^−1, read-out: MRT0-t): 1.5 h
C0 as multiple of the free MPC (PK study [2]; cynomolgus, i.v. 2 mg kg^−1): ~17 times
VC (PK study [2]; cynomolgus, i.v. 2 mg kg^−1): 273 mL/kg
maximal-tolerated i.v. bolus dose [3]: 15 mg kg^−1 body weight
C0 ([3]; mouse, plasma, iv, 15 mg kg^−1 i.v. bolus, read-out: extrapolated C0): 27300 ng/mL
haematological and clinical biochemical parameters (in vivo; 24 h post application): remained within normal range
safety margin (in vivo; projected dosing regimen vs i.v. NOAEL in rats): ~55 fold
C0 (in vivo; rats, 15 mg kg^−1 i.v. bolus (NOEL), read-out: extrapolated C0): 32800 ng/mL
C0 (in vivo; rats, 22.5 mg kg^−1 i.v. bolus (NOAEL), read-out: extrapolated C0): 49200 ng/mL
C0 (in vivo; rats, 30 mg kg^−1 i.v. bolus, read-out: extrapolated initial drug plasma concentration C0): 65600 ng/mL
maximal-tolerated i.v. bolus dose (in vivo; rats): 30 mg kg^−1 body weight
time to full recovery after drug application (in vivo; rats and mice at maximal-tolerated dose): ≤ 30 min
adverse effect (in vivo; rats, 45 mg kg^−1 body weight): apnea; also recorded: apnoea
ALB (in vivo; rats, 24h, 15 mg/kg): 4.9 g/dL
ALB/GLOB (in vivo; rats, 24h, 15 mg/kg): 5.5 g/dL
ALP (in vivo; rats, 24h, 15 mg/kg): 306 U l-1
ALT (in vivo; rats, 24h, 15 mg/kg): 51 U l-1
AMY (in vivo; rats, 24h, 15 mg/kg): 909 U l-1
AST (in vivo; rats, 24h, 15 mg/kg): 70 U l-1
BUN (in vivo; rats, 24h, 15 mg/kg): 14.7 mg/dL
BUN/CREA (in vivo; rats, 24h, 15 mg/kg): 66.7 mg/dL
CA (in vivo; rats, 24h, 15 mg/kg): 11.0 mg/dL
CK (in vivo; rats, 24h, 15 mg/kg): 176 U l-1
CRE (in vivo; rats, 24h, 15 mg/kg): 0.2 mg/dL
EOS (in vivo; rats, 24h, 15 mg/kg): 0.4%
GLOB (in vivo; rats, 24h, 15 mg/kg): 0.9 g/dL
GLU (in vivo; rats, 24h, 15 mg/kg): 202 mg/dL
HCT (in vivo; rats, 24h, 15 mg/kg): 40.9%
HGB (in vivo; rats, 24h, 15 mg/kg): 14.3 g/dL
K+ (in vivo; rats, 24h, 15 mg/kg): 5.1 mmol/L
MCH (in vivo; rats, 24h, 15 mg/kg): 20.5 pg
MCHC (in vivo; rats, 24h, 15 mg/kg): 35.1 g/dL
MCV (in vivo; rats, 24h, 15 mg/kg): 58 µm3
MPV (in vivo; rats, 24h, 15 mg/kg): 5.7 µm3
NA+ (in vivo; rats, 24h, 15 mg/kg): 136 mmol/L
NA/K (in vivo; rats, 24h, 15 mg/kg): 26.7 mmol/L
PHOS (in vivo; rats, 24h, 15 mg/kg): 9.4 mg/dL
PLT (in vivo; rats, 24h, 15 mg/kg): 812 103 mm-3
RBC (in vivo; rats, 24h, 15 mg/kg): 7.00 103 mm-3
RDW (in vivo; rats, 24h, 15 mg/kg): 13.3%
TBIL (in vivo; rats, 24h, 15 mg/kg): 0.4 mg/dL
TP (in vivo; rats, 24h, 15 mg/kg): 5.8 g/dL
WBC (in vivo; rats, 24h, 15 mg/kg): 16.7 103 mm-3

From publication PMC5290327, “SC83288 is a clinical development candidate for the treatment of severe malaria” (Nature Communications, 2017)
